We go through one compound from patent publication US20250375419A1, “NOVEL RAS INHIBITORS” (KHR Biotec GmbH, priority 2022, published 2025).

Molecules are shown by their SMILES.

Format in all cases: cell-based
For one experiment, the system named is BaF3 KRAS G12C. Description: MTT assay for cell viability in 96 well cell culture plate. Conditions: Mus musculus, 48 h treatment. The procedure:
(§1) Metabolic activity was quantified using Cell Proliferation Kit I (Roche, Basel, Switzerland). Cells were seeded in 96-well cell culture plates, using 5000 cells per well for NCI-H358 cells. After treatment, 10 μl of MTT solution was added and incubated for 2 h in CO2 incubator. Then 100 μl of solubilization buffer was added to each well and incubated overnight in CO2 incubator. Cell viability, assessed by the amount of metabolized MTT, was quantified by measuring absorbance at 570 nm.
(§2) FIGS. 3a) und 3b): MTT assay for cell viability in 96 well cell culture plate Cells were treated with compounds for 48 h and cell viability was evaluated by MTT assay. The results shown are mean from 3 independent experiments. DMSO-treated cells were set as 1. The results shown are mean±SEM from 1-3 independent experiments.
(§3) G12C/Y96D mutation is normally seen in patients, who develop resistance to G12C inhibitor. Thus, patients, who are resistant to G12C inhibitors can still be treated with Tegaserode maleate.

Another experiment concerns BaF3 KRAS G12C/Y96D. Described as above. Conditions: Mus musculus, 48 h treatment. On the procedure:
as §1, §2, §3

A further experiment concerns KRAS dependent cells. Description: MTT assay for cell viability, KRAS dependent cells (FIG. 3a). The following applies: irrespective of the presence of mutation, 48 h. The procedure: as §2, §3
Another experiment deals with NCI-H358. Description: Soft agar colony formation assay, colonies stained with MTT. The following applies: Homo sapiens; NCI-H358, growth in soft agar, MTT absorbance 570 nm, 3 independent experiments. On the procedure:
as §1
(§4) MTT assay for the growth of different tumour cell lines with RAS mutations in soft agar with Tegaserode maleate.
(§5) NCI-H358, H358, H2122, ASPC-1, HCT-116, T24 and HT1080 cells were used for the soft agar colony formation assay. After the treatment with Tegaserode maleate, the colonies were stained with MTT and the value was quantified by measuring absorbance at 570 nm after solubilization. The results represent mean±SEM from 3 independent experiments.

Another experiment concerns NCI-H2122. Described as above. The following applies: Homo sapiens; NCI-H2122, growth in soft agar, MTT absorbance 570 nm, 3 independent experiments. The procedure: as §1, §4, §5
The next experiment relates to HT1080. The description is as above. The following applies: Homo sapiens, HT-1080; HT1080, growth in soft agar, MTT absorbance 570 nm, 3 independent experiments. The procedure:
as §1, §4, §5

For the next experiment, the system named is HCT-116. The experiment is described as above. Conditions: Homo sapiens; HCT-116, growth in soft agar, MTT absorbance 570 nm, 3 independent experiments. On the procedure: as §1, §4, §5
For another experiment, the system named is T24. The description is as above. Conditions: Homo sapiens, T-24; T24, growth in soft agar, MTT absorbance 570 nm, 3 independent experiments. On the procedure:
as §1, §4, §5

A further experiment relates to ASPC1. The description is as above. Conditions: Homo sapiens; ASPC1, growth in soft agar, MTT absorbance 570 nm, 3 independent experiments. On the procedure:
as §1, §4, §5

In experiment [1] the test system is RAS protein of RASOpathie. Description: RASOpathie-Model; MTT assay for cell viability in 96 well cell culture plate. Conditions: 48 h treatment. The procedure:
FIG. 4: RASOpathie-Model of Tegaserode maleate; MTT assay for cell viability in 96 well cell culture plate
Cells were treated with Tegaserode maleate for 48 h and cell viability was evaluated by MTT assay. DMSO-treated cells were set as 1. The results shown are mean±SEM from 3 independent experiments.

Consider `CCCCCNC(=N)N/N=C/c1c[nH]c2ccc(OC)cc12.O=C(O)/C=C\C(=O)O` [Tegaserode maleate, 2-[(5-Methoxy-1H-indol-3-yl)methylene]-N-pentyl-hydrazinecarboximidamide maleate], for which the IC50 amounted to 10.2 µM with BaF3 KRAS G12C; 2.86 µM with BaF3 KRAS G12C/Y96D; 5.39 µM in the experiment with NCI-H358; 3.37 µM in the experiment on NCI-H2122; 2.43 µM in the experiment with HT1080; 3.12 µM with HCT-116. Also, the IC50 worked out at 11.3 µM in the experiment on T24 and 4.76 µM in the experiment on ASPC1. Besides, in the experiment on KRAS dependent cells, the “inhibition of KRAS dependent cells” value was “inhibits KRAS dependent cells irrespective of the presence of mutation”. Also, in [1], the “inhibition of RAS protein of RASOpathie (cell viability)” value is “inhibits RAS protein of RASOpathie”.
